Source: patent EP4567032A1, “KIF18A INHIBITOR COMPOUND, AND PHARMACEUTICAL COMPOSITION AND PREPARATION METHOD THEREFOR AND USE THEREOF” (Changchun Genescience Pharmaceutical Co., Ltd., priority 2022, dated 2024)

Key:
[1] = system: OVCAR-3 cells; experiment: imaging-based nuclear count analysis (NCA) in OVCAR-3 cells; assay type: cell-based; details: Homo sapiens, 96 h, cultured 4 days, Hoechst 33342 nuclear count, 0.1% DMSO
Description: Test name: imaging-based nuclear count analysis (NCA) in OVCAR-3 cells
• a) When the cell confluence reached 80%-90%, the cells were treated. • b) The cells were resuspended in a medium and then counted and diluted at a desired density. • c) A cell suspension containing appropriate cells was added to the 384-well plate at 30 µL/well: 600 cells/well.
• a) 30 µL of 8% fixative (final concentration 4%) was added and the plate was incubated at room temperature for 30 min. • b) The plate was centrifuged at 1000RPM for 30s. • c) The plate was washed twice with 60 µl/well PBS. • d) After immobilization, the cells were permeabilized and stained in 60 µL of a wash buffer containing 2 µg/mL Hoechst 33342 DNA dye (1% BSA, 0.2% Triton X-100, 1X PBS). • e) The plate was sealed and incubated at room temperature in the dark for 1 h. • f) It was washed with PBS 3 times. • g) 50µLPBS/well was added and the plate was scanned using HCS. • h) Data acquisition and detection
High-reading control wells: cells + 30 nL DMSO; low-reading control wells: 10 µM AM-5308.
IC50 (nM) was calculated using GraphPad Prism 8 software and the effect-dose curves of the compound were plotted. Table 1 Bioactivity data of the compound of the present application

[2] = molecular target: T1, KIF18A (Homo sapiens, UniProt Q8NI77); experiment: KIF18A enzyme activity test (ADP Glo); assay type: biochemical; details: ADP Glo luminescence, 60 min reaction at room temperature, 1% DMSO
T1 sequence (Q8NI77 1-898): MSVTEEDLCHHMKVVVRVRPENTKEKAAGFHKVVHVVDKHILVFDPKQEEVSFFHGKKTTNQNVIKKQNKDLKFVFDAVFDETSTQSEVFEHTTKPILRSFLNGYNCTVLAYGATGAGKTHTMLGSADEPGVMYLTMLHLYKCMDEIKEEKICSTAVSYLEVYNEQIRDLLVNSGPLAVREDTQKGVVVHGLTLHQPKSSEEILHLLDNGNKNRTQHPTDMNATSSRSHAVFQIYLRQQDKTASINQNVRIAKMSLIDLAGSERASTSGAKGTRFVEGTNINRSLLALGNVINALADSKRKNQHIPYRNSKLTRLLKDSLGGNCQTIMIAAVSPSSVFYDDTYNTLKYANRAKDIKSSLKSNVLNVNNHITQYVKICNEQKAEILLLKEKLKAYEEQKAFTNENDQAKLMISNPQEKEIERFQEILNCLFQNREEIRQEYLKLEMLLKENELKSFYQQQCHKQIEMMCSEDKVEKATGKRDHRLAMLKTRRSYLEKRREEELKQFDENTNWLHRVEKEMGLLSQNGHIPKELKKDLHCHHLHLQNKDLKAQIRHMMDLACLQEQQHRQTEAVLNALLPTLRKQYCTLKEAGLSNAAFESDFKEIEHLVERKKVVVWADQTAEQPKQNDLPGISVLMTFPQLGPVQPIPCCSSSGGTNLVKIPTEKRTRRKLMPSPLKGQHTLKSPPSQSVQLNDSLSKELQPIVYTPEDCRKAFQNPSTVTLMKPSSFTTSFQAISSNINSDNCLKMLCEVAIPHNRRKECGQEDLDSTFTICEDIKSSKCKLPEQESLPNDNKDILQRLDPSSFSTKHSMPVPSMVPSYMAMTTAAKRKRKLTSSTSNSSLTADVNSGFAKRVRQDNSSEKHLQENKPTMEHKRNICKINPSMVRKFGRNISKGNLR
Description: Test name: KIF18A enzyme activity test
• 1) Compound dilution and treatment: The final concentrations of AM-5308: 10000, 3333.3, 1111.1, 370.3, 123.4, 41.1, 13.7, 4.5, 1.5, 0.5 nM, the final testing concentrations of the testing compound: 10000, 3333.3, 1111.1, 370.3, 123.4, 41.1, 13.7, 4.5, 1.5 and 0.5 nM. • 2) To each well of the reaction plate, 100 nL of the diluted compound stock solution was transferred using Echo 655. The final concentration of DMSO was 1%. • 3) The reaction plate was sealed with a sealing membrane and centrifuged at 1000g for 1 min. • 4) A 2× enzyme solution was prepared with 1× reaction buffer. • 5) To each well of the reaction plate, 5 µL of 2×enzyme solution was added. The plate was sealed with a sealing membrane, centrifuged at 1000g for 1 min and left at room temperature for 15 min. • 6) A 2× ATP solution was prepared with 1× reaction buffer. • 7) To the reaction plate, 5 µL of 2×ATP solution was added, the plate was centrifuged at 1000g for 1 min, and the reaction was started. • 8) The system was allowed to react at room temperature for 60 min. • 9) 10 µL of ADP Glo reagent was added. The system was centrifuged at 1000 g for 1 min and incubated at room temperature for 60 min. • 10) 20 µL of kinase detection reagent was added. The system was centrifuged at 1000 g for 1 min, and incubated at room temperature for 60 min. • 11) The system was centrifuged at 1000 g for 1 min. • 12) The luminescence signals were read on Envision 2104.
The inhibition percentage is calculated as follows: %inhibition = 100−(Signalcmpd−SignalAve_PC)/(SignalAve_VC−SignalAve_PC) × 100 [formula] • Signalcmpd: Average value of the test compound on the reaction plate. • SignalAve_PC: Average value of the positive control (AM-5308) on the reaction plate. • SignalAve_VC: Average value of the negative control (DMSO) on the reaction plate.
IC50 was calculated and the dose-effect curve was fit: The IC50 of the compound was obtained by non-linear fitting formula with GraphPad 8.0.
Z factor > 0.5; S/B > 2. Table 2 Enzyme activity data for the compound of the present application

## COc1ccc2c(NC(=O)c3ccc(NS(=O)(=O)CCO)cc3N3CCC4(CC3)CC4)cccc2c1 [Compound 1, 2-{6-azaspiro[2.5]octan-6-yl}-4-(2-hydroxyethanesulfonylamino)-N-(6-methoxynaphthalen-1-yl)benzamide]
[1]
  IC50: 163 nM
[2]
  IC50: 21.2 nM

## O=C(Nc1cccc2c1nc1n2CCCC1)c1ccc(NS(=O)(=O)CCO)cc1N1CCC2(CC1)CC2 [Compound 22, 4-(2-hydroxyethanesulfonylamino)-2-(6-azaspiro[2.5]octan-6-yl)-N-(benzo[4,5]imidazo[1,2-a]piperidin-6-yl)benzamide]
[1]
  IC50: 143 nM
[2]
  IC50: 21.3 nM

## O=C(Nc1cccc2c1nc1n2CCC1)c1ccc(NS(=O)(=O)CCO)cc1N1CCC2(CC1)CC2 [Compound 36, N-(2,3-dihydro-1H-benzo[d]pyrrolo[1,2-a]imidazol-5-yl)-4-(2-hydroxyethanesulfonylamino)-2-(6-azaspiro[2.5]octan-6-yl)benzamide]
[1]
  IC50: 72.2 nM
[2]
  IC50: 13.7 nM

## O=C(Nc1cccc2c1nc1n2CCC1(F)F)c1ccc(NS(=O)(=O)CCO)cc1N1CCC2(CC1)CC2 [Compound 94, N-(3,3-difluoro-2,3-dihydro-1H-benzo[d]pyrrolo[1,2-a]imidazol-5-yl)-4-(2-hydroxyethanesulfonylamino)-2-(6-azaspiro[2.5]octan-6-yl)benzamide]
[1]
  IC50: 36.1 nM
[2]
  IC50: 15.1 nM

## O=C(Nc1cccc2c1nc1n2C2CCC1C2)c1ccc(NS(=O)(=O)CCO)cc1N1CCC2(CC1)CC2 (stereo not shown) [Compound 96, 4-(2-hydroxyethanesulfonylamino)-2-(6-azaspiro[2.5]octan-6-yl)-N-(1,2,3,4-tetrahydro-1,4-methylenebenzo[4,5]imidazo[1,2-a]pyridin-6-yl)benzamide]
[1]
  IC50: 89.7 nM
[2]
  IC50: 8.97 nM

## O=C(Nc1cccc2c1nc1n2[C@H]2CC[C@@H]1C2)c1ccc(NS(=O)(=O)CCO)cc1N1CCC2(CC1)CC2 [Compound 96a, 4-(2-hydroxyethanesulfonylamino) -2-(6-azaspiro[2.5]octan-6-yl)-N-((1S,4R)-1,2,3,4-tetrahydro-1,4-methylenebenzo[4,5]imidazo [1,2-a]pyridin-6-yl)benzamide]
[1]
  IC50: 60.9 nM
[2]
  IC50: 5.35 nM

## O=C(Nc1cccc2c1nc1n2CCCCC1)c1ccc(NS(=O)(=O)CCO)cc1N1CCC2(CC1)CC2 [Compound 97, 4-(2-hydroxyethanesulfonylamino)-2-(6-azaspiro[2.5]octan-6-yl)-N-(7,8,9,10-tetrahydro-6H-benzo[4,5]imidazo[1,2-a]azepin-4-yl)benzamide]
[1]
  IC50: 58.8 nM
[2]
  IC50: 9.09 nM

## CC1CCCn2c1nc1c(NC(=O)c3ccc(NS(=O)(=O)CCO)cc3N3CCC4(CC3)CC4)cccc12 (stereo not shown) [Compound 98, 4-(2-hydroxyethanesulfonylamino)-N-(4-methyl-1,2,3,4-tetrahydrobenzo[4,5]imidazo[1,2-a]pyridin-6-yl)-2-(6-azaspiro[2.5]octan-6-yl)benzamide]
[1]
  IC50: 170 nM
[2]
  IC50: 26.5 nM
